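Exposure lasted 48 hours, with cells grown in 96-well plates and compounds tested at five concentrations. Abbreviation: GI50, concentration required for 50% inhibition of growth. TGI: concentration producing complete growth inhibition.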
What was measured:
Test in all cases: growth of human tumour cells (NCI), 48 h
A498 renal = system: A498 renal
CCRF-CEM leukemia = system: CCRF-CEM leukemia
EKVX NSCLC = system: EKVX NSCLC
HCT-15 colon = system: HCT-15 colon
HOP-62 NSCLC = system: HOP-62 NSCLC
LOX IMVI melanoma = system: LOX IMVI melanoma
M14 melanoma = system: M14 melanoma
OVCAR-3 ovarian = system: OVCAR-3 ovarian
SF-295 CNS = system: SF-295 CNS
SK-OV-3 ovarian = system: SK-OV-3 ovarian
UO-31 renal = system: UO-31 renal
MDA-MB-231 breast = system: MDA-MB-231 breast

Compound | TGI (A498 renal) | TGI (CCRF-CEM leukemia) | TGI (EKVX NSCLC) | TGI (HCT-15 colon) | TGI (HOP-62 NSCLC) | TGI (LOX IMVI melanoma) | TGI (M14 melanoma) | TGI (OVCAR-3 ovarian) | TGI (SF-295 CNS) | TGI (SK-OV-3 ovarian) | TGI (UO-31 renal) | GI50 (M14 melanoma) | GI50 (MDA-MB-231 breast) | TGI (MDA-MB-231 breast) | GI50 (OVCAR-3 ovarian) | GI50 (SF-295 CNS) | GI50 (SK-OV-3 ovarian) | GI50 (UO-31 renal)
COc1ccc2c(=O)c([Se]c3coc4cc(OC)ccc4c3=O)coc2c1 | > 100 µM | > 100 µM | > 100 µM | > 100 µM | > 100 µM | > 100 µM | 37.5 µM | > 100 µM | > 100 µM | > 100 µM | > 100 µM |  |  |  |  |  |  | 
O=C(NC(=O)c1cn(CCN2CCNCC2)c(=O)[nH]c1=O)OCc1ccccc1 |  | > 100 µM | > 100 µM | > 100 µM | > 100 µM | > 100 µM | > 100 µM | > 100 µM | > 100 µM | > 100 µM |  |  |  |  |  |  |  | 
COc1cc2cc3c4c(cc(OC)c(OC)c4c2cc1OC)CCN3C(=O)CCCC(=O)O | > 100 µM | > 100 µM | > 100 µM |  | > 100 µM | > 100 µM | > 100 µM | > 100 µM | > 100 µM | > 100 µM | > 100 µM |  |  |  |  |  |  | 
COCCO | > 100 µM |  | > 100 µM | > 100 µM | > 100 µM | > 100 µM |  | > 100 µM | > 100 µM | > 100 µM | > 100 µM |  |  |  |  |  |  | 
CC(/C=C/c1ncccc1OCCCCCC(=O)O)=N\NC1=NCCN1 |  | > 100 µM | > 100 µM | > 100 µM | > 100 µM | > 100 µM | > 100 µM | > 100 µM | > 100 µM | > 100 µM | > 100 µM |  |  |  |  |  |  | 
CSc1ccc2c(c1)c(CCN)c(C)n2Cc1ccc(Cl)c(Cl)c1 |  |  |  |  |  |  | 3.22 µM | 3.15 µM | 3.22 µM | 3.09 µM | 3.01 µM | 1.69 µM | 1.69 µM | 3.39 µM | 1.7 µM | 1.69 µM | 1.69 µM | 1.59 µM
Nc1[nH]c(=O)nc2sc3c(c12)CCCC3 |  | > 100 µM | > 100 µM | > 100 µM | > 100 µM |  | > 100 µM |  |  | > 100 µM | > 100 µM |  |  | > 100 µM |  |  |  | 
O=c1[nH]c(=S)[nH]c2c1sc(=S)n2-c1ccccc1 | > 100 µM | > 100 µM | > 100 µM | > 100 µM | > 100 µM | > 100 µM | > 100 µM | > 100 µM | > 100 µM | > 100 µM | > 100 µM |  |  |  |  |  |  | 
Cc1ccc2nc3c(C(=O)NCCN(C)C)cccc3cc2c1 | 3.4 µM | 5.28 µM | 2.78 µM | 4.91 µM | 7.05 µM | 6.4 µM |  | 5.83 µM | 7.14 µM | 6.66 µM | 2.96 µM |  |  |  |  |  |  | 

Reference: PubChem BioAssay (NCI)
